In publication PMC8179002, “Inhibitors of thiol-mediated uptake” (Chemical Science, 2020):
Converted amounts (≈) assume the structure as drawn. Where two headings read alike, the source gives them in different places. Bridge positions count the residues as written; N and C are the ends. Peptide text beside a SMILES is read from it.

How the values were obtained:
[1] = test system: cellular uptake of 1 in HeLa Kyoto cells; assay: cells; format: cell-based; conditions: for IC50: read-out: IC50, inhibition of cellular uptake of 1; for minimal effective concentration: read-out: MIC, inhibition of cellular uptake of 1; for MIC (concentration that causes ∼15% reduction of reporter uptake), against reporter 1: pre-incubation time not given (Fig. 2: 1 h pre-incubation, 30 min with reporter; some 15 min)
Description: (§1) With COCs 1 and 2 as cell-penetrating reporters, a fully automated, fluorescent microscopy image-based high-content high-throughput (HCHT)[19] inhibitor screening assay was developed. HeLa cells in multiwell plates are incubated with a reporter at constant and inhibitors at varying concentrations and incubation times. Hindered reporter uptake then causes decrease of fluorescence inside of cells (Fig. 3a). Automated data analysis[19] was established to extract average fluorescence intensity per cell and, at the same time, cell viability from propidium iodide negative nuclei count (Fig. 3 and S3–S6 ^†). Standard assay conditions consisted of pre-incubation of HeLa cells with inhibitors for different periods of time, followed by the removal of inhibitors and the addition of reporters, thus excluding possible interactions between the two in the extracellular environment. In alternative co-incubation conditions, inhibitors were not removed before the addition of reporters to allow for eventual interactions between the two.
(§2) 4. High-Content High-Throughput (HCHT) Inhibitor Screening
(§3) 4.1. General Procedure for HCHT Inhibitor Screening
(§4) 4.1.1. Pre-Incubation of Inhibitors
(§5) HeLa Kyoto cells were seeded at 1.2 ×10^4 cells/well in FluoroBrite DMEM + 10% FBS on μ-Plate 96-well Black ibiTreat sterile and kept at 37 °C with 5% CO2 overnight. Next day, serial dilutions of the inhibitors in PBS (10x final concentration), reporter 1 or 2 (100 μM in PBS) and a solution of Hoechst 33342 (100 μg/mL) and PI (10 μg/mL) in PBS were prepared freshly in a 96-well V-bottom plate. Then, cells were washed with PBS ([…]) and the media was exchanged to FluoroBrite DMEM (4 x 150 μL/well) using a plate washer (Biotek EL406®), keeping always a final volume of 135 μL/well. The inhibitor solutions from the V-bottom plate were added to the cells (15 μL/well, 10x final concentration in PBS) using an electronic multichannel pipettes to reach a final volume of 150 μL/well. Cells were incubated for the time of interest (for details of each inhibitors, see Section 4.3 and 4.4) at 37 °C with 5%
(§6) CO2. After this, cells were washed again using the plate washer and reporter solution 1 or 2 from the V-bottom plate was added (15 μL/well) using an electronic multichannel pipettes to reach a final volume of 150 μL/well and a final concentration of 10 μM, except for the control wells, where only PBS was added (15 μL/well). After 30 min of incubation at 37 °C with 5% CO2, the plate was washed again using the plate washer. Then, the solution of Hoechst 33342 and PI from V-bottom plate was added (15 μL/well) using an electronic multichannel pipettes to reach a final volume of 150 μL/well. After 15 min of incubation at 37 °C with 5% CO2, the plate was washed one last time and the cells were kept in clean FluoroBrite DMEM. During imaging, samples were kept at 37 °C with 5% CO2 in the microscope.
(§7) 4.1.2. Co-Incubation of Inhibitors and Reporters […]
(§8) serial dilutions of the inhibitors in PBS (10x final concentration), reporter 1 or 2 (110 μM in […]
(§9) freshly in a 96-well V-bottom plate. Then, cells were washed with the plate washer. The inhibitor solutions from the V-bottom plate were added to the cells (15 μL/well, 10x final concentration in PBS) using an electronic multichannel pipettes to reach a final volume of 150 μL/well. Cells were incubated for the time of interest (for details of each inhibitors, see Section 4.3 and 4.4) at 37 °C with 5% CO2. Reporter solution 1 or 2 from V-bottom plate was then added (15 μL/well) using an electronic multichannel pipettes to reach a final volume of 165 μL/well and a final concentration of 10 μM 30 min before the next washing process, except for the control wells, where only PBS was added (15 μL/well). The plate was washed again using the plate washer. The solution of Hoechst 33342 and PI from V-bottom plate was added (15 μL/well) using an electronic multichannel pipettes to reach a final volume of 150 μL/well. After […]

[2] = test system: cellular uptake of 2 in HeLa Kyoto cells; assay: cells; format: cell-based
Description: as §1, §2, §3, §4, §5, §6, §7, §8, §9

[3] = HeLa Kyoto, 0.5 h, HeLa, tpre 0.5 h with inhibitor, removal, tinc 0.5 h with 1 (10 µM)
[4] = HeLa Kyoto, 0.5 h, HeLa, tpre 5.5 h with FBS, then tco 0.5 h co-incubation of inhibitor and 1 (10 µM)
[5] = HeLa Kyoto, 0.5 h, HeLa, tpre 23.5 h with FBS, then tco 0.5 h co-incubation of inhibitor and 1 (10 µM)
[6] = HeLa Kyoto, 1 h, HeLa, tpre 1 h with inhibitor, removal, tinc 0.5 h with 1 (10 µM)
[7] = HeLa Kyoto, 2 h, HeLa, tpre 2 h with inhibitor, removal, tinc 0.5 h with 1 (10 µM)
[8] = HeLa Kyoto, HeLa, tpre 1 h with inhibitor, removal, tinc 0.5 h with 1 (10 µM)
[9] = HeLa Kyoto, HeLa, tpre 2 h with inhibitor, removal, tinc 0.5 h with 1 (10 µM)
[10] = HeLa Kyoto, HeLa, tpre 5.5 h with FBS, then tco 0.5 h co-incubation of inhibitor and 1 (10 µM)
[11] = HeLa Kyoto, HeLa, tpre 23.5 h with FBS, then tco 0.5 h co-incubation of inhibitor and 1 (10 µM)
[12] = HeLa Kyoto, read-out: IC50, inhibition of cellular uptake of 2, HeLa, tpre 4 h with inhibitor, removal, tinc 0.5 h with 2 (10 µM)
[13] = HeLa, tpre 4 h with inhibitor, removal, tinc 0.5 h with 2 (10 µM)
[14] = HeLa, tpre 1 h with inhibitor, removal, tinc 0.5 h with 1 (10 µM)
[15] = HeLa, tpre 2 h with inhibitor, removal, tinc 0.5 h with 1 (10 µM)
[16] = HeLa, tpre 0.5 h, then tco 0.5 h co-incubation of inhibitor and 2 (10 µM)
[17] = HeLa, tpre 1 h with inhibitor, removal, tinc 0.5 h with 2 (10 µM)
[18] = HeLa Kyoto, 0.5 h, HeLa, tpre 0.5 h, then tco 0.5 h co-incubation of inhibitor and 1 (10 µM)
[19] = HeLa Kyoto, 4 h, HeLa, tpre 4 h with inhibitor, removal, tinc 0.5 h with 1 (10 µM)
[20] = HeLa Kyoto, HeLa, tpre 4 h with inhibitor, removal, tinc 0.5 h with 1 (10 µM)
[21] = HeLa Kyoto, 0.5 h, HeLa, tpre 0.5 h, then tco 0.5 h co-incubation of inhibitor and 2 (10 µM), read-out: IC50, inhibition of cellular uptake of 2
[22] = HeLa Kyoto, HeLa, tpre 1 h with inhibitor, removal, tinc 0.5 h with 2 (10 µM), read-out: IC50, inhibition of cellular uptake of 2
[23] = HeLa Kyoto, HeLa, tpre 6 h with FBS, removal, tinc 0.5 h with 2 (10 µM), read-out: IC50, inhibition of cellular uptake of 2
[24] = HeLa, tpre 6 h with FBS, removal, tinc 0.5 h with 2 (10 µM)

SMILES	IC50 [1, 3] [µM]	minimal effective concentration [1, 3] [µM]	minimal effective concentration [1, 4] [µM]	minimal effective concentration [1, 5] [µM]	minimal effective concentration [1, 6] [µM]	minimal effective concentration [1, 7] [µM]	IC50 [1, 8] [µM]	IC50 [1, 9] [µM]	IC50 [1, 10] [µM]	IC50 [1, 11] [µM]	IC50 [2, 12] [µM]	MIC, inhibition of cellular uptake of 2 [2, 13] [µM]	MIC (concentration that causes ∼15% reduction of reporter uptake), against reporter 1 ([1]; HeLa)	IC50 [1, 14] [µM]	IC50 [1, 15] [µM]	MIC, inhibition of cellular uptake of 2 [2, 16] [µM]	MIC, inhibition of cellular uptake of 2 [2, 17] [µM]	IC50 [1, 18] [µM]	minimal effective concentration [1, 18] [µM]	minimal effective concentration [1, 19] [µM]	other results
O=C(O)CC[C@H](NC(=O)CCCCC1CCSS1(=O)=O)C(=O)O (some centres unmarked) [compound 15]	407 ± 49	100	65	55	50	50	306 ± 30	298 ± 31	258 ± 33	219 ± 16	> 500	150									IC50 ([2]; HeLa Kyoto, read-out: IC50, inhibition of cellular uptake of 2, HeLa, tpre 23.5 h with FBS, then tco 0.5 h co-incubation of inhibitor and 2 (10 µM)): > 500 µM; MIC, inhibition of cellular uptake of 2 ([2]; HeLa, tpre 23.5 h with FBS, then tco 0.5 h co-incubation of inhibitor and 2 (10 µM)): < 20 µM
N[C@H]1CSSC[C@@H](C(=O)N[C@@H](CCC(=O)O)C(=O)O)NC(=O)CNC1=O [compound 19] (H-CGCE-OH; disulfide 1-3)												900	≈ 300 μM	> 2000	> 2000	5	> 1000				minimal effective concentration ([1]; 1 h): 400 µM; minimal effective concentration ([1]; 2 h): 400 µM; IC50 ([1]; HeLa, tpre 0.5 h with inhibitor, removal, tinc 0.5 h with 1 (10 µM)): > 2000 µM; IC50 ([2]; HeLa, tpre 0.5 h, then tco 0.5 h co-incubation of inhibitor and 2 (10 µM), read-out: IC50, inhibition of cellular uptake of 2): 46 ± 5 µM; IC50 ([2]; HeLa, tpre 1 h with inhibitor, removal, tinc 0.5 h with 2 (10 µM), read-out: IC50, inhibition of cellular uptake of 2): > 1000 µM; MIC, inhibition of cellular uptake of 2 ([2]; HeLa, tpre 1.5 h, then tco 0.5 h co-incubation of inhibitor and 2 (10 µM)): 7 µM; IC50 ([2]; HeLa, tpre 1.5 h, then tco 0.5 h co-incubation of inhibitor and 2 (10 µM), read-out: IC50, inhibition of cellular uptake of 2): 58 ± 10 µM; MIC, inhibition of cellular uptake of 2 ([2]; HeLa, tpre 2 h with inhibitor, removal, tinc 0.5 h with 2 (10 µM)): > 1000 µM; IC50 ([2]; HeLa, tpre 2 h with inhibitor, removal, tinc 0.5 h with 2 (10 µM), read-out: IC50, inhibition of cellular uptake of 2): > 1000 µM; IC50 ([2]; HeLa, tpre 4 h with inhibitor, removal, tinc 0.5 h with 2 (10 µM), read-out: IC50, inhibition of cellular uptake of 2): > 1000 µM; MIC against reporter 2 ([2]; HeLa, upon co-incubation): ≈ 5 μM
CCN1C(=O)C2SSSSC1C(=O)N2CC(=O)O (centres unmarked) [compound 3]	1.7 ± 0.2	< 0.1	< 0.5	30	< 0.1	< 0.1	1.3 ± 0.2	2.7 ± 0.6	9.6 ± 1.2	> 50			< 0.1 µM			17	> 20	2.7 ± 0.1	< 0.5	< 0.1	IC50 [1, 20]: 8.2 ± 3.2 µM; IC50 [2, 21]: > 20 µM; IC50 [2, 22]: > 20 µM; IC50 [2, 23]: > 100 µM; MIC, inhibition of cellular uptake of 2 [2, 24]: 40 µM
O=S1(=O)C[C@H](O)[C@H](O)CS1 [compound 16]			10	150	200		> 1000		150 ± 30	860 ± 60	183 ± 18	20									MIC against reporter 2 ([2]; HeLa, longer pre-incubation (Fig. 2: 4 h pre-incubation)): ~20 µM (≈ 3.68 µg/mL)
CCN1C(=O)C2SSC1C(=O)N2CC(=O)O (centres unmarked) [compound 4]	4.4 ± 1.3	< 0.1	0.3	8.1	0.1	0.1	1.1 ± 0.1	1.5 ± 0.1	4.9 ± 0.5	66 ± 14		> 2				20	> 20	2 ± 0.2	0.3	0.1	IC50 [1, 20]: 2.1 ± 0.2 µM; IC50 [2, 21]: > 20 µM; IC50 [2, 22]: > 20 µM; IC50 ([2]; HeLa Kyoto, HeLa, tpre 4 h with inhibitor, removal, tinc 0.5 h with 2 (10 µM), read-out: IC50, inhibition of cellular uptake of 2): > 2 µM; IC50 [2, 23]: > 100 µM; MIC, inhibition of cellular uptake of 2 [2, 24]: 80 µM
[O-][S+]1CC(O)C(O)CS1 (centres unmarked) [compound 17]			250	150		300			> 1000	> 500				> 500	> 500			> 500	100	250	minimal effective concentration [1, 14]: 250 µM; IC50 ([1]; HeLa, tpre 4 h with inhibitor, removal, tinc 0.5 h with 1 (10 µM)): > 500 µM
